Measured values published in patent US11759444B2, “Methods for cancer and immunotherapy using prodrugs of glutamine analogs” (The Johns Hopkins University, priority 2015, dated 2023).
“Also recorded” adds a separate entry of the source. Where two headings read alike, the source gives them in different places.

Tests used:
[1] = In vitro plasma stability, pig plasma; format: in vitro ADME
[2] = In vitro plasma stability, mouse plasma
[3] = In vitro plasma stability, human plasma
[4] = In vitro plasma stability, dog plasma; format: in vitro ADME
[5] = Plasma and CSF pharmacokinetics in swine, i.v. infusion; format: in vivo, Göttingen×Yucutan miniature swine; conditions: 60 min post-administration
[6] = In vitro plasma stability, monkey plasma
[7] = Plasma and CSF pharmacokinetics in monkeys, i.v.; format: in vivo, pigtail macaques; conditions: monkey
Protocol: All monkey studies were conducted according to protocol (#PR15M298) approved by the Animal Care and Use Committee at Johns Hopkins University. Two female pigtail monkeys (approximately 3.5 kg, non-drug naive) were adjacently housed in stainless steel cages on a social interaction rack (contains 4 cages, each 32.5″ wide×28″ deep×32″ high) maintaining temperature of 64-84° F., humidity of 30-70% with alternating 14-10 hour light/dark cycle as per the USDA Animal Welfare Act (9 CFR, Parts 1, 2, and 3). Food was provided daily in amounts appropriate for the size and age of the animals and RO purified water provided ad libitum through an in-cage lixit valve. Food enrichment was provided Monday through Friday. […]
We have previously published a highly sensitive method for analysis of DON in biological matrices (Alt, et al., 2015). […] The mean predicted […] for back calculated concentrations of the standards and QC's for all analytes were within the range of 85 to 115%, except for the lowest concentration which was within the range of 80 to 120% with an overall accuracy and precision of 6.7% and 6.6% respectively.
Mean concentration-time data was used for pharmacokinetic analysis. […] Area under the curve (AUC) was calculated by log-linear trapezoidal rule to the end of sample collection (AUClast). […]

B16 melanoma = B16 melanoma mouse model; format: in vivo; conditions: monotherapy
[8] = microsomes
MC38 cells [9] = assay: MC38 colon cancer tumor model; format: in vivo, C57BL/6 mice; conditions: growth rate recovered after several days
4T1 tumor cells = assay: 4T1 breast cancer model; conditions: for 4T1 tumor growth and survival, monotherapy (words): 1 mg/kg daily
B16-OVA melanoma cells = assay: B16-OVA melanoma model with adoptive cellular therapy; format: in vivo, C57BL/6 mice; conditions: 1 mg/kg/day days 7-9 before transfer on day 10
Protocol: Adoptive Cellular Therapy: OVA-expressing B16 melanoma model, C57BL/6 WT mice received a s.c. injection of 2×10^5 B16-OVA melanoma cells cultured under OVA selection media containing 400 μg/ml G418 (Life technologies). Mice were treated with compound 25 or vehicle by daily gavage with 1 mg/kg/day in 100 uL for days 7-9 post tumor inoculation. Ten days after tumor injection, mice received an adoptive transfer of 1.5×10^6 activated OT1 cells, which had been stimulated in vitro with […] peptide for 48 h, expanded in IL-2 (1 ng/mL) for 24 h and isolated with Ficol gradient centrifugation. Mice were randomized based on tumor size before transfer of activated OT1 cells for adoptive transfer experiments. Tumor burden was assessed every 2-4 days by measuring length and width of tumor. Tumor volume was calculated using the formula V=(L×W×W)/2, where V is tumor volume, W is tumor width, and L is tumor length. Mice were sacrificed when tumor reached 2 cm in any dimension, became ulcerate or necrotic, or caused functional deficits.

EL4 lymphoma = assay: EL4 mouse lymphoma model; format: in vivo; conditions: monotherapy
[10] = microsomes; remark: listed apart in the source
CT26 cells = assay: CT26 colon cancer tumor model; format: in vivo, BALB/c mice; conditions: for CT26 anti-tumor response in combination with anti-PD1: combination with anti-PD-1
Protocol: (§1) Tumor growth and survival experiments: Tumor injections were administered in the right flank. For the MC38 and MC38OVA models, C57BL/6 WT mice were injected with 5×10^5 MC38 or MC38OVA cells (s.c.) cultured in DMEM-based media. For the CT26 model, BALB/c mice were injected with 5×10^5 CT26 cells (s.c.) cultured in RPMI-based media. Compound 25 was dissolved in 2.5% ethanol in PBS (v/v) which was administered for all vehicle-treated control experiments. For MC38 and MC38OVA experiments, mice were treated with Compound 25 or vehicle by daily gavage with 1 mg/kg/day in 100 uL for days 10-14 and with 0.3 mg/kg/day for day 15-24. For CT26 experiments, mice were treated with compound 25 or vehicle by daily gavage with 1 mg/kg/day in 100 uL for days 7-11 and with 0.3 mg/kg/day for day 12-21.

MC38 cells [11] = assay: MC38 colon cancer tumor model; format: in vivo, C57BL/6 mice; conditions: for MC38 tumor response, monotherapy (words): 1 mg/kg followed by 0.3 mg/kg, 14 days, wild type mice; for rejection of tumor re-challenge by mice cured with monotherapy: MC38 rechallenge on opposite flank; for MC38 response in combination with anti-PD1: combination with anti-PD-1
Protocol: as §1

EO771 cells = assay: EO771 breast cancer model; format: in vivo, C57BL/6 mice
Protocol: Mouse: C57BL/6 (both male and female mice, 6-8 weeks of age) were purchased from Jackson Laboratories. The studies were conducted under a protocol approved by the Johns Hopkins Animal Care and Use Committee.
Cell Line: EO771 breast cancer cell lines were purchased from CH3 BioSystems.
Treatment with immunotherapy alone or combined immunotherapy with compound 25: On days 9, 12, and 15, mice were injected with or without 100 μg anti-PD1 alone or 100 μg anti-PD1 in combination with 100 μg anti-CTLA4, followed by treatment with or without compound 25. Each individual mouse tumor growth and survival curves were recorded.

3LL cells = assay: 3LL tumor model; format: in vivo, C57BL/6J mice
Excerpt: 5×10^6 3 LL cells were implanted subcutaneously into the right flank in C57BL/6J male mice.

[12] = Table 2, prodrug 10 μM, 60 min incubation at 37° C., values read as % prodrug remaining
[13] = 1 mg/kg daily day 7 to 16, tumors evaluated day 21

With `CC(C)OC(=O)[C@H](CCC(=O)C=[N+]=[N-])NC(=O)O[C@H](C)OC(=O)C(C)(C)C` (single isomer, unassigned) [Compound 14b] the “stability in pig plasma” value [1] was “stable”, the “metabolism in mouse plasma” value [2] was “rapidly metabolized” and the PLASMA STABILITY Mouse [2, 12] was 0%. The “metabolism in mouse plasma” value ([2]; listed as 5c) was “completely converted to DON”, the “stability in human plasma” value [3] was “stable” and the PLASMA STABILITY Human [3, 12] was 91%. The “stability in human plasma” value ([3]; listed as 5c) was “stable; also recorded: excellent stability”, the “stability in dog plasma” value [4] was “stable” and the “CSF delivery of DON” value [5] was “substantially higher amounts of DON; also recorded: enhanced CSF delivery of DON”. For the same molecule, the “CSF-to-plasma ratio of DON” value [5] was “increased CSF-to-plasma ratios; also recorded: enhanced CSF:plasma ratio of DON”, the “stability in monkey plasma” value [6] was “stable” and the PLASMA STABILITY Monkey [6, 12] was 61%. For the same molecule, the “stability in monkey plasma” value ([6]; listed as 5c) was “stable; also recorded: excellent stability” and the “CSF:plasma ratio of DON” value [7] was “enhanced CSF:plasma ratio of DON”.

With `CCOC(=O)[C@H](CCC(=O)C=[N+]=[N-])NC(=O)[C@@H](N)CC(C)C` [Compound 25] the “melanoma tumor growth” value (B16 melanoma) was “marked decrease in tumor growth”, the “liver microsomal stability, human” value [8] was “moderate-high stability” and the “MC38 tumor growth in RAG2−/− mice” value (MC38 cells [9]) was “some initial effect on tumor growth”. The “4T1 tumor growth and survival, monotherapy (words)” value (4T1 tumor cells) was “robust response and improved overall survival”, the “CD11b+ cells and G-MDSCs in circulating blood” value (4T1 tumor cells; 1 mg/kg daily day 7 to 16, flow cytometry days 6, 9, 17) was “reduced CD11b+ cells and G-MDSCs” and the “TNF alpha in tumor associated macrophages” value (4T1 tumor cells; [13]) was “increased TNF alpha”. For the same molecule, the fibrocytes in tumor (4T1 tumor cells; [13]) was “reduced fibrocytes”, the “4T1-Luc tumor luminescence, comparison with anti-PD1” value (4T1 tumor cells; 1 mg/kg daily from day 7, IVIS imaging day 13) was “inhibited mammary carcinoma cell proliferation better than anti-PD1” and the “4T1 tumor growth and survival, monotherapy (words)” value (4T1 tumor cells; listed as compound 25) was “inhibited the growth of mammary carcinoma tumor cells; also recorded: modest decrease in tumor growth”. The spontaneous lung metastasis (4T1 tumor cells; 1 mg/kg from day 7, then 0.3 mg/kg, lungs harvested day 30) was “significantly reduces lung metastasis”, the “4T1 breast cancer model, comparison with CB-839” value (4T1 tumor cells; 25 daily days 7-22 (1.0 mg/kg/d) vs CB-839 BID days 1-29) was “superior to CB-839” and the “4T1 tumor growth and survival, combination with anti-PD1 and anti-CTLA4” value (4T1 tumor cells; compound 25 + anti-PD1 + anti-CTLA-4) was “substantial decrease of tumor growth and increase in survival time”. For the same molecule, the “tumor control and survival with adoptive transfer of activated OT1 T cells” value (B16-OVA melanoma cells) was “unexpected improvement in tumor control and survival”, the “lymphoma tumor growth” value (EL4 lymphoma) was “marked decrease in tumor growth” and the “liver microsomal stability, pig” value [10] was “moderate-high stability”. The “CT26 tumor model, comparison with CB-839” value (CT26 cells; 25 short daily course vs CB-839 continuous BID dosing) was “superior to CB-839”, the “CT26 anti-tumor response in combination with anti-PD1” value (CT26 cells) was “unexpectedly enhances the response to anti-PD1” and the “CT26 anti-tumor response in combination with anti-PD1” value (CT26 cells; listed as compound 25) was “significant anti-tumor responses”. For the same molecule, the “CT26 tumor response and survival, monotherapy (words)” value (CT26 cells) was “robust response and improved overall survival”, the “CT26 tumor response and survival, monotherapy (words)” value (CT26 cells; listed as compound 25) was “marked decrease in tumor growth” and the “MC38 tumor response, monotherapy (words)” value (MC38 cells [11]) was “complete and durable response”. For the same molecule, the “MC38 tumor response, monotherapy (words)” value (MC38 cells [11]; listed as compound 25) was “marked decrease in tumor growth; also recorded: durable cures; also recorded: significant control of the tumor including complete regression in a proportion of the mice”, the “rejection of tumor re-challenge by mice cured with monotherapy” value (MC38 cells [11]) was “immunologically reject tumors upon re-challenge” and the “rejection of tumor re-challenge by mice cured with monotherapy” value (MC38 cells [11]; listed as compound 25) was “More than three-quarters”. The “MC38 response in combination with anti-PD1” value (MC38 cells [11]) was “conditions tumors to be eliminated by anti-PD1 therapy; also recorded: rescues anti-PD1 failures”, the “MC38 response in combination with anti-PD1” value (MC38 cells [11]; listed as compound 25) was “unexpected increase in both tumor regression and complete responses” and the “EO771 tumor growth and survival, single agent” value (EO771 cells; agent alone) was “delayed tumor growth and increased survival”. For the same molecule, the “EO771 tumor growth and survival, combination with anti-PD-1” value (EO771 cells; compound 25 + anti-PD-1) was “surprising increase in inhibition of tumor growth and survival”, the 3LL tumor growth (3LL cells; 1 mg/kg from day 7, then 0.3 mg/kg) was “reduced tumor growth” and the “ratio of CD8 cells to MDSCs+ and TANs, blood and TIL” value (3LL cells; 3LL tumor-bearing mice) was “increased ratio of CD8 cells to MDSCs+ and TANs”.
